# From US20230106592A1, “METHOD FOR TREATING CANCER USING A COMBINATION OF DNA DAMAGING AGENTS AND ATR INHIBITORS” (Vertex Pharmaceuticals Incorporated, priority 2015, published 2023)
# Entries after “also recorded” stand apart in the source; their conditions may differ. Read-outs that look alike come from different tables or passages of the source.
# Experiments:
# [1] = system: OD26749 primary human non-small cell lung cancer xenografts; test: Primary NSCLC xenograft, dose schedule in combination with cisplatin; type: in vivo, SCID mice
# From the text: This contrasts with the effects of either agent given alone, where neither Compound A-2the nor cisplatin had any meaningful impact on tumor growth (≤10% tumor growth inhibition).
# [2] = Phase I trial, combination with cisplatin: adverse events and DLTs
# Description: Twenty eight (28) pts (12 males and 16 females) of median age, 62.5 yrs (range 28-79 yrs), with Eastern Cooperative Oncology Group (ECOG) performance status 0-1 were treated. Primary tumors were breast (n=4), colorectal (n=3), ovarian (n=3), pancreatic (n=2), non-small cell lung cancer (NSCLC) (n=1), and other cancers (n=15).
# [3] = Phase I trial, monotherapy and carboplatin combination: pharmacokinetics; type: in vivo, human; conditions: for half-life: human, plasma
# From the text: (§1) Pts with advanced solid tumors enrolled in 2 sequential parts.
# PSN1 cancer cells = test: In vitro dose schedule with gemcitabine, MTS cell viability, Bliss synergy analysis; type: cell-based, human
# Description: Cell viability was measured by MTS assay at 96 hours and the data subjected to a statistical Bliss analysis using MacSynergy II software to quantitate synergy as a log volume.
# Cell viability was measured by MTS assay (96 hours) and the data subjected to a statistical Bliss analysis. Compound A-2 synergized with gemcitabine when administered at the start of gemcitabine treatment. […] The strong schedule dependence is attributed to an accumulation of cells in S phase, and concomitant increase in ATR activity (measured by P-Chk1) that occurs in response to gemcitabine treatment alone.
# [4] = Phase I trial, combination with gemcitabine and cisplatin: DLTs; type: in vivo, human
# [5] = Phase I trial, monotherapy: adverse events and DLTs; type: in vivo, human; conditions: for Drug-related G3-4 AEs / Dose-limiting toxicities (DLT): Part A; for Dose-limiting toxicities (DLT): once weekly IV monotherapy 60 to 480 mg/m^2
# From the text: as §1
# Eleven of the subjects were given a once weekly dosage of Compound A-2 as a monotherapy. Six of the subjects were given a twice weekly dosage of Compound A-2 as a monotherapy. […] DLTs were defined according to the National Cancer Institute (NCI) CTCAE (Version 4).
# In part A, single pt cohorts received a compound of Formula A-2 once weekly in 21-day cycles with 3+3 dose escalation cohorts being implemented if grade 2 drug-related adverse events (AEs) occurred. […] If a DLT was reported, the cohort was expanded to include 3 additional pts with subsequent dose escalation being permitted if no further DLTs occurred. Paired pre- and post-treatment biopsies from selected pts in part B were assessed for pCHK1 levels by immunohistochemistry. Models based on preclinical and clinical data were used to simulate hematologic toxicities and pCHK1 inhibition for pts treated with a compound of Formula A-2 and CP.
# [6] = Compound A-2 10 mg/kg twice weekly, 14 hours after cisplatin 3 mg/kg weekly
# [7] = monotherapy 60 mg/m^2 Once Weekly (n = 1)
# [8] = monotherapy 120 mg/m^2 Once Weekly (n = 2)
# [9] = monotherapy 240 mg/m^2 Once Weekly (n = 1)
# [10] = monotherapy 240 mg/m^2 Twice Weekly (n = 6)
# [11] = monotherapy 480 mg/m^2 Once Weekly (n = 7)
smiles,measurement,setting,value
CNCc1ccc(-c2cc(-c3nc(-c4ccc(S(=O)(=O)C(C)C)cc4)cnc3N)on2)cc1 [Compound A-2],Efficacy (tumor volume),[1]; Compound A-2 10 mg/kg twice weekly dosed 14 hours after cisplatin 3 mg/kg weekly,most effective
same,Growth delay,[1]; [6],substantial growth delay
same,Tumor regression,[1]; [6],43%
same,Body weight loss at nadir,[1]; combination of Compound A-2 and cisplatin,< 2%
same,Non-DLT grade 3-4 treatment-related adverse events,"[2]; CIS day 1, Compound A-2 days 2 and 9, 28 pts",11 pts
same,No. DLTs,"[2]; Cohort 4: Compound A-2 210 mg/m^2 + Cisplatin 60 mg/m^2, 10/10, grade 3 elevated ALT",1 (grade 3
same,No. DLTs,"[2]; Cohort 5: Compound A-2 140 mg/m^2 + Cisplatin 75 mg/m^2, 7/6, grade 3 drug hypersensitivity",1 (grade 3 drug
same,Maximum tolerated combination dose,[2]; combination with CIS,not reached
same,Drug interaction with carboplatin,[3]; Compound A-2 exposure alone versus combined with CP,no apparent drug interactions; also recorded: no interaction
same,Accumulation,"[3]; IV, patients",no accumulation
same,AUC and Cmax versus dose,[3]; all DLs,linear
same,Pharmacokinetics (PK) versus dose,[3]; as a monotherapy and in combination with CP,dose proportional
same,half-life,"[3]; intravenous, monotherapy and combination with carboplatin, read-out: Terminal elimination half-life (t1/2) (converted)",~16 h
same,half-life,"[3]; IV, patients, read-out: Median half-life (converted)",16 h
same,Exposure (AUCinf and Cmax) versus dose,[3]; monotherapy and combination with carboplatin,increased proportionally
same,Synergy with gemcitabine (Bliss analysis of cell viability),"PSN1 cancer cells; Compound A-2 2 hour exposure at the start of 24 hour gemcitabine treatment, MTS at 96 hours",synergized
same,Synergy with gemcitabine (Bliss analysis of cell viability),PSN1 cancer cells; Compound A-2 administered 24 hours after starting gemcitabine treatment,maximal
same,Synergy with gemcitabine (Bliss analysis of cell viability),PSN1 cancer cells; Compound A-2 administered 48 hours or later after gemcitabine treatment was started,No synergy
same,No. of Patients with DLTs,"[4]; Cohort 11: Compound A-2 90 + Gemcitabine 875 + Cisplatin 60 mg/m^2, 6/6, thrombocytopenia/neutropenia",1 (thrombocytopenia/
same,No. of Patients with DLTs,"[4]; Cohort 12: Compound A-2 120 + Gemcitabine 875 + Cisplatin 60 mg/m^2, 2/2, febrile neutropenia/thrombocytopenia, hypoxia/neutropenia",2 (febrile neutropenia/
same,Drug-related G3-4 AEs,[5]; monotherapy,no
same,Drug-related G3-4 AEs,"[5]; monotherapy, listed as Formula A-2",none
same,Dose-limiting toxicities (DLT),[5],no dose-limiting toxicities; also recorded: no dose limiting toxicities
same,Dose-limiting toxicities (DLT),[5]; listed as Formula A-2,No DLTs
same,Tolerability,"[5]; as monotherapy and in combination with CP, CIS, or gem",well tolerated
same,"Treatment related adverse event: Any Event, All Grades",[5]; [7],1 (100) n (%)
same,"Treatment related adverse event: Any Event, Grade ≥ 3",[5]; [7],0 n (%)
same,"Treatment related adverse event: Catheter site related reaction, All Grades",[5]; [7],0 n (%)
same,"Treatment related adverse event: Catheter site related reaction, Grade ≥ 3",[5]; [7],0 n (%)
same,"Treatment related adverse event: Flushing, All Grades",[5]; [7],0 n (%)
same,"Treatment related adverse event: Flushing, Grade ≥ 3",[5]; [7],0 n (%)
same,"Treatment related adverse event: Headache, All Grades",[5]; [7],0 n (%)
same,"Treatment related adverse event: Headache, Grade ≥ 3",[5]; [7],0 n (%)
same,"Treatment related adverse event: Infusion related reaction, All Grades",[5]; [7],0 n (%)
same,"Treatment related adverse event: Infusion related reaction, Grade ≥ 3",[5]; [7],0 n (%)
same,"Treatment related adverse event: Nausea, All Grades",[5]; [7],0 n (%)
same,"Treatment related adverse event: Nausea, Grade ≥ 3",[5]; [7],0 n (%)
same,"Treatment related adverse event: Pruritus, All Grades",[5]; [7],0 n (%)
same,"Treatment related adverse event: Pruritus, Grade ≥ 3",[5]; [7],0 n (%)
same,"Treatment related adverse event: Any Event, All Grades",[5]; [8],4 (50.0) n (%)
same,"Treatment related adverse event: Any Event, Grade ≥ 3",[5]; [8],0 n (%)
same,"Treatment related adverse event: Catheter site related reaction, All Grades",[5]; [8],0 n (%)
same,"Treatment related adverse event: Catheter site related reaction, Grade ≥ 3",[5]; [8],0 n (%)
same,"Treatment related adverse event: Flushing, All Grades",[5]; [8],0 n (%)
same,"Treatment related adverse event: Flushing, Grade ≥ 3",[5]; [8],0 n (%)
same,"Treatment related adverse event: Headache, All Grades",[5]; [8],0 n (%)
same,"Treatment related adverse event: Headache, Grade ≥ 3",[5]; [8],0 n (%)
same,"Treatment related adverse event: Infusion related reaction, All Grades",[5]; [8],0 n (%)
same,"Treatment related adverse event: Infusion related reaction, Grade ≥ 3",[5]; [8],0 n (%)
same,"Treatment related adverse event: Nausea, All Grades",[5]; [8],0 n (%)
same,"Treatment related adverse event: Nausea, Grade ≥ 3",[5]; [8],0 n (%)
same,"Treatment related adverse event: Pruritus, All Grades",[5]; [8],0 n (%)
same,"Treatment related adverse event: Pruritus, Grade ≥ 3",[5]; [8],0 n (%)
same,"Treatment related adverse event: Any Event, All Grades",[5]; [9],0 n (%)
same,"Treatment related adverse event: Any Event, Grade ≥ 3",[5]; [9],0 n (%)
same,"Treatment related adverse event: Catheter site related reaction, All Grades",[5]; [9],0 n (%)
same,"Treatment related adverse event: Catheter site related reaction, Grade ≥ 3",[5]; [9],0 n (%)
same,"Treatment related adverse event: Flushing, All Grades",[5]; [9],0 n (%)
same,"Treatment related adverse event: Flushing, Grade ≥ 3",[5]; [9],0 n (%)
same,"Treatment related adverse event: Headache, All Grades",[5]; [9],0 n (%)
same,"Treatment related adverse event: Headache, Grade ≥ 3",[5]; [9],0 n (%)
same,"Treatment related adverse event: Infusion related reaction, All Grades",[5]; [9],0 n (%)
same,"Treatment related adverse event: Infusion related reaction, Grade ≥ 3",[5]; [9],0 n (%)
same,"Treatment related adverse event: Nausea, All Grades",[5]; [9],0 n (%)
same,"Treatment related adverse event: Nausea, Grade ≥ 3",[5]; [9],0 n (%)
same,"Treatment related adverse event: Pruritus, All Grades",[5]; [9],0 n (%)
same,"Treatment related adverse event: Pruritus, Grade ≥ 3",[5]; [9],0 n (%)
same,"Treatment related adverse event: Any Event, All Grades",[5]; [10],6 (100) n (%)
same,"Treatment related adverse event: Any Event, Grade ≥ 3",[5]; [10],1 (16.7) n (%)
same,"Treatment related adverse event: Catheter site related reaction, All Grades",[5]; [10],2 (33.3) n (%)
same,"Treatment related adverse event: Catheter site related reaction, Grade ≥ 3",[5]; [10],0 n (%)
same,"Treatment related adverse event: Flushing, All Grades",[5]; [10],1 (16.7) n (%)
same,"Treatment related adverse event: Flushing, Grade ≥ 3",[5]; [10],0 n (%)
same,"Treatment related adverse event: Headache, All Grades",[5]; [10],0 n (%)
same,"Treatment related adverse event: Headache, Grade ≥ 3",[5]; [10],0 n (%)
same,"Treatment related adverse event: Infusion related reaction, All Grades",[5]; [10],4 (16.7) n (%)
same,"Treatment related adverse event: Infusion related reaction, Grade ≥ 3",[5]; [10],0 n (%)
same,"Treatment related adverse event: Nausea, All Grades",[5]; [10],0 n (%)
same,"Treatment related adverse event: Nausea, Grade ≥ 3",[5]; [10],0 n (%)
same,"Treatment related adverse event: Pruritus, All Grades",[5]; [10],0 n (%)
same,"Treatment related adverse event: Pruritus, Grade ≥ 3",[5]; [10],0 n (%)
same,"Treatment related adverse event: Any Event, All Grades",[5]; [11],7 (100) n (%)
same,"Treatment related adverse event: Any Event, Grade ≥ 3",[5]; [11],0 n (%)
same,"Treatment related adverse event: Catheter site related reaction, All Grades",[5]; [11],0 n (%)
same,"Treatment related adverse event: Catheter site related reaction, Grade ≥ 3",[5]; [11],0 n (%)
same,"Treatment related adverse event: Flushing, All Grades",[5]; [11],3 (42.9) n (%)
same,"Treatment related adverse event: Flushing, Grade ≥ 3",[5]; [11],0 n (%)
same,"Treatment related adverse event: Headache, All Grades",[5]; [11],2 (28.6) n (%)
same,"Treatment related adverse event: Headache, Grade ≥ 3",[5]; [11],0 n (%)
same,"Treatment related adverse event: Infusion related reaction, All Grades",[5]; [11],1 (14.3) n (%)
same,"Treatment related adverse event: Infusion related reaction, Grade ≥ 3",[5]; [11],0 n (%)
same,"Treatment related adverse event: Nausea, All Grades",[5]; [11],2 (28.6) n (%)
same,"Treatment related adverse event: Nausea, Grade ≥ 3",[5]; [11],0 n (%)
same,"Treatment related adverse event: Pruritus, All Grades",[5]; [11],2 (28.6) n (%)
same,"Treatment related adverse event: Pruritus, Grade ≥ 3",[5]; [11],0 n (%)
same,"Treatment related adverse event: Any Event, All Grades","[5]; monotherapy, Total (N = 17)",15 (88.2) n (%)
same,"Treatment related adverse event: Any Event, Grade ≥ 3","[5]; monotherapy, Total (N = 17)",1 (5.9) n (%)
same,"Treatment related adverse event: Catheter site related reaction, All Grades","[5]; monotherapy, Total (N = 17)",2 (11.8) n (%)
same,"Treatment related adverse event: Catheter site related reaction, Grade ≥ 3","[5]; monotherapy, Total (N = 17)",0 n (%)
same,"Treatment related adverse event: Flushing, All Grades","[5]; monotherapy, Total (N = 17)",4 (23.5) n (%)
same,"Treatment related adverse event: Flushing, Grade ≥ 3","[5]; monotherapy, Total (N = 17)",0 n (%)
same,"Treatment related adverse event: Headache, All Grades","[5]; monotherapy, Total (N = 17)",2 (11.8) n (%)
same,"Treatment related adverse event: Headache, Grade ≥ 3","[5]; monotherapy, Total (N = 17)",0 n (%)
same,"Treatment related adverse event: Infusion related reaction, All Grades","[5]; monotherapy, Total (N = 17)",2 (11.8) n (%)
same,"Treatment related adverse event: Infusion related reaction, Grade ≥ 3","[5]; monotherapy, Total (N = 17)",0 n (%)
same,"Treatment related adverse event: Nausea, All Grades","[5]; monotherapy, Total (N = 17)",2 (11.8) n (%)
same,"Treatment related adverse event: Nausea, Grade ≥ 3","[5]; monotherapy, Total (N = 17)",0 n (%)
same,"Treatment related adverse event: Pruritus, All Grades","[5]; monotherapy, Total (N = 17)",2 (11.8) n (%)
same,"Treatment related adverse event: Pruritus, Grade ≥ 3","[5]; monotherapy, Total (N = 17)",0 n (%)
same,Dose at which adverse events began,[5]; once weekly monotherapy,480 mg/m^2
